Measured values reported in patent publication US12077503B2, “Substituted cyclic amides and their use as herbicides” (FMC CORPORATION, priority 2015, dated 2024).

What was measured:
Format in all cases: in vivo
[1] = tested on: Kochia (Kochia scoparia); assay: Test A preemergence; conditions: for Plant response rating, Kochia: 125 g ai/ha, preemergence, 0 to 100 scale (0 no effect, 100 complete control); for Kochia plant response rating (0 to 100 scale, 0 is no effect, 100 is complete control): Preemergence, 500 g ai/ha, visual injury approx. 10 d
Summary of the method: (§1)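 Visual injury scores from 0, no effect, to 100, complete control, were assigned versus untreated controls roughly 10 d after treatment in the greenhouse. Test chemicals, formulated with surfactant in a non-phytotoxic solvent, were applied to planted seeds as a preemergence soil spray or postemergence to one- to two-leaf plants 2 to 10 cm tall, in loam–sand soil.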

[2] = tested on: barnyardgrass (Echinochloa crus-galli); assay: Test A preemergence; conditions: for Plant response rating, Barnyardgrass: 125 g ai/ha, preemergence, 0 to 100 scale (0 no effect, 100 complete control); for Barnyardgrass plant response rating (0 to 100 scale, 0 is no effect, 100 is complete control): Preemergence, 500 g ai/ha, visual injury approx. 10 d
Summary of the method: as §1

[3] = tested on: ragweed (common ragweed, Ambrosia elatior); assay: Test A preemergence; conditions: for Plant response rating, Ragweed: 125 g ai/ha; for Ragweed plant response rating (0 to 100 scale, 0 is no effect, 100 is complete control): 500 g ai/ha, visual injury approx. 10 d
Summary of the method: as §1

[4] = tested on: ryegrass, Italian (Italian ryegrass, Lolium multiflorum); assay: Test A preemergence; conditions: for Plant response rating, Ryegrass, Italian: 125 g ai/ha; for Ryegrass, Italian plant response rating (0 to 100 scale, 0 is no effect, 100 is complete control): 500 g ai/ha, visual injury approx. 10 d
Summary of the method: as §1

[5] = tested on: giant foxtail (Setaria faberii); assay: Test A preemergence; conditions: for Plant response rating, Foxtail, Giant: 125 g ai/ha, preemergence, 0 to 100 scale (0 no effect, 100 complete control); for Foxtail, Giant plant response rating (0 to 100 scale, 0 is no effect, 100 is complete control): Preemergence, 500 g ai/ha, visual injury approx. 10 d
Summary of the method: as §1

[6] = tested on: pigweed (Amaranthus retroflexus); assay: Test A preemergence; conditions: for Plant response rating, Pigweed: 125 g ai/ha; for Pigweed plant response rating (0 to 100 scale, 0 is no effect, 100 is complete control): 500 g ai/ha, visual injury approx. 10 d
[7] = tested on: Galium (catchweed bedstraw, Galium aparine); assay: Test A postemergence; conditions: for Galium plant response rating: 125 g ai/ha, visual injury rating on 0 to 100 scale (0 no effect, 100 complete control), approx. 10 d; for Plant response rating, Galium: 500 g ai/ha
Summary of the method: as §1

[8] = tested on: Kochia (Kochia scoparia); assay: Test A postemergence; conditions: for Kochia plant response rating: 125 g ai/ha, visual injury rating on 0 to 100 scale (0 no effect, 100 complete control), approx. 10 d; for Plant response rating, Kochia: 500 g ai/ha
Summary of the method: as §1

[9] = tested on: wheat (Triticum aestivum); assay: Test A postemergence; conditions: for Wheat plant response rating: 125 g ai/ha, visual injury rating on 0 to 100 scale (0 no effect, 100 complete control), approx. 10 d; for Plant response rating, Wheat: 500 g ai/ha
Summary of the method: as §1

[10] = tested on: barnyardgrass (Echinochloa crus-galli); assay: Test A postemergence; conditions: postemergence; for Barnyardgrass plant response rating: 125 g ai/ha, visual injury rating on 0 to 100 scale (0 no effect, 100 complete control), approx. 10 d; for Plant response rating, Barnyardgrass: 500 g ai/ha, 0 to 100 scale, 0 no effect, 100 complete control
Summary of the method: as §1

[11] = tested on: ragweed (common ragweed, Ambrosia elatior); assay: Test A postemergence; conditions: for Ragweed plant response rating: 125 g ai/ha, visual injury rating on 0 to 100 scale (0 no effect, 100 complete control), approx. 10 d; for Plant response rating, Ragweed: 500 g ai/ha
Summary of the method: as §1

[12] = tested on: ryegrass, Italian (Italian ryegrass, Lolium multiflorum); assay: Test A postemergence; conditions: for Ryegrass, Italian plant response rating: 125 g ai/ha, visual injury rating on 0 to 100 scale (0 no effect, 100 complete control), approx. 10 d; for Plant response rating, Ryegrass, Italian: 500 g ai/ha
Summary of the method: as §1

[13] = tested on: giant foxtail (Setaria faberii); assay: Test A postemergence; conditions: for Foxtail, Giant plant response rating: 125 g ai/ha, visual injury rating on 0 to 100 scale (0 no effect, 100 complete control), approx. 10 d; for Plant response rating, Foxtail, Giant: 500 g ai/ha
Summary of the method: as §1

[14] = tested on: pigweed (Amaranthus retroflexus); assay: Test A postemergence; conditions: for Pigweed plant response rating: 125 g ai/ha, visual injury rating on 0 to 100 scale (0 no effect, 100 complete control), approx. 10 d; for Plant response rating, Pigweed: 500 g ai/ha
Summary of the method: as §1

[15] = tested on: blackgrass (Alopecurus myosuroides); assay: Test A postemergence; conditions: postemergence; for Blackgrass plant response rating: 125 g ai/ha, visual injury rating on 0 to 100 scale (0 no effect, 100 complete control), approx. 10 d; for Plant response rating, Blackgrass: 500 g ai/ha, 0 to 100 scale, 0 no effect, 100 complete control
Summary of the method: as §1

[16] = tested on: corn (Zea mays); assay: Test A postemergence; conditions: postemergence; for Corn plant response rating: 125 g ai/ha, visual injury rating on 0 to 100 scale (0 no effect, 100 complete control), approx. 10 d; for Plant response rating, Corn: 500 g ai/ha, 0 to 100 scale, 0 no effect, 100 complete control
Summary of the method: as §1

[17] = tested on: barnyardgrass (Echinochloa crus-galli); assay: Test B flooded paddy test; conditions: Flood, 0 to 100 scale where 0 is no effect and 100 is complete control, 13 to 15 d
Summary of the method: (§2)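 Compound goes directly into floodwater once pots are flooded 3 cm above soil, targeting plants at two leaves; the water depth is then held for the test duration. Plants sit 13–15 d in a greenhouse and are rated visually, 100 denoting complete control.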

[18] = tested on: sedge, umbrella (small-flower umbrella sedge, Cyperus difformis); assay: Test B flooded paddy test; conditions: Flood, 0 to 100 scale where 0 is no effect and 100 is complete control, 13 to 15 d
Summary of the method: as §2

[19] = tested on: ducksalad (Heteranthera limosa); assay: Test B flooded paddy test; conditions: Flood, 0 to 100 scale where 0 is no effect and 100 is complete control, 13 to 15 d
Summary of the method: as §2

[20] = tested on: rice (Oryra sativa); assay: Test B flooded paddy test; conditions: Flood, 0 to 100 scale where 0 is no effect and 100 is complete control, 13 to 15 d
Summary of the method: as §2

[21] = preemergence, 0 to 100 scale (0 no effect, 100 complete control)
[22] = postemergence, 0 to 100 scale, 0 no effect, 100 complete control
[23] = Preemergence, visual injury after approximately 10 d, 0 to 100 scale where 0 is no effect and 100 is complete control
[24] = Postemergence, 0 to 100 scale where 0 is no effect and 100 is complete control

| SMILES | Plant response rating, Kochia [1] | Kochia plant response rating (0 to 100 scale, 0 is no effect, 100 is complete control) [1] | Plant response rating, Barnyardgrass [2] | Barnyardgrass plant response rating (0 to 100 scale, 0 is no effect, 100 is complete control) [2] | Ragweed plant response rating (0 to 100 scale, 0 is no effect, 100 is complete control) ([3]; Preemergence) | Ryegrass, Italian plant response rating (0 to 100 scale, 0 is no effect, 100 is complete control) ([4]; Preemergence) | Plant response rating, Foxtail, Giant [5] | Foxtail, Giant plant response rating (0 to 100 scale, 0 is no effect, 100 is complete control) [5] | Pigweed plant response rating (0 to 100 scale, 0 is no effect, 100 is complete control) ([6]; Preemergence) | Galium plant response rating ([7]; postemergence) | Kochia plant response rating ([8]; postemergence) | Wheat plant response rating ([9]; postemergence) | Barnyardgrass plant response rating [10] | Plant response rating, Barnyardgrass [10] | Ragweed plant response rating ([11]; postemergence) | Ryegrass, Italian plant response rating ([12]; postemergence) | Foxtail, Giant plant response rating ([13]; postemergence) | Pigweed plant response rating ([14]; postemergence) | Blackgrass plant response rating [15] | Plant response rating, Blackgrass [15] | other results |
| --- | --- | --- | --- | --- | --- | --- | --- | --- | --- | --- | --- | --- | --- | --- | --- | --- | --- | --- | --- | --- | --- |
| Cc1cccc(NC(=O)C2C(=O)NCC2c2ccc(F)c(F)c2)c1F (stereo not drawn) [Compound 409] | 0 | 0 | 70 | 80 | 0 | 0 | 80 | 90 | 10 | 0 | 0 | 0 | 60 | 70 | 0 | 0 | 60 | 0 | 10 | 20 | Plant response rating, Ragweed [3, 21]: 0; Plant response rating, Ryegrass, Italian [4, 21]: 0; Plant response rating, Pigweed [6, 21]: 0; Plant response rating, Galium [7, 22]: 0; Plant response rating, Kochia [8, 22]: 30; Plant response rating, Wheat [9, 22]: 0; Plant response rating, Ragweed [11, 22]: 0; Plant response rating, Ryegrass, Italian [12, 22]: 0; Plant response rating, Foxtail, Giant [13, 22]: 80; Plant response rating, Pigweed [14, 22]: 20; Corn plant response rating [16]: 0; Plant response rating, Corn [16]: 0; Plant response rating, Barnyardgrass ([17]; 500 g ai/ha): 40; Plant response rating, Sedge, Umbrella ([18]; 500 g ai/ha): 0; Plant response rating, Ducksalad ([19]; 500 g ai/ha): 40; Plant response rating, Rice ([20]; 500 g ai/ha): 30 |
| CN1CC(c2ccc(C(F)(F)F)cc2F)C(C(=O)Nc2ccccc2F)C1=O (stereo not drawn) [Compound 476] | 50 | 70 | 90 | 90 | 60 | 40 | 90 | 100 | 80 | 30 | 30 | 0 | 90 | 90 | 0 | 30 | 80 | 20 | 20 | 50 | Plant response rating, Ragweed [3, 23]: 0; Plant response rating, Ryegrass, Italian [4, 23]: 0; Plant response rating, Pigweed [6, 23]: 30; Plant response rating, Galium [7, 24]: 60; Plant response rating, Kochia [8, 24]: 60; Plant response rating, Wheat [9, 24]: 30; Plant response rating, Ragweed [11, 24]: 0; Plant response rating, Ryegrass, Italian [12, 24]: 40; Plant response rating, Foxtail, Giant [13, 24]: 80; Plant response rating, Pigweed [14, 24]: 40; Corn plant response rating [16]: 0; Plant response rating, Corn [16]: 30; Plant response rating, Barnyardgrass ([17]; 250 g ai/ha): 0; Plant response rating, Sedge, Umbrella ([18]; 250 g ai/ha): 0; Plant response rating, Ducksalad ([19]; 250 g ai/ha): 80; Plant response rating, Rice ([20]; 250 g ai/ha): 0 |
| Cc1ccc(F)c(NC(=O)C2C(=O)NCC2c2ccc(F)c(F)c2)c1 (stereo not drawn) [Compound 408] | 0 | 0 | 0 | 0 | 0 | 0 | 0 | 0 | 0 | 0 | 0 | 0 | 0 | 0 | 0 | 0 | 0 | 0 | 0 | 0 | Plant response rating, Ragweed [3, 21]: 0; Plant response rating, Ryegrass, Italian [4, 21]: 0; Plant response rating, Pigweed [6, 21]: 0; Plant response rating, Galium [7, 22]: 0; Plant response rating, Kochia [8, 22]: 0; Plant response rating, Wheat [9, 22]: 0; Plant response rating, Ragweed [11, 22]: 0; Plant response rating, Ryegrass, Italian [12, 22]: 0; Plant response rating, Foxtail, Giant [13, 22]: 0; Plant response rating, Pigweed [14, 22]: 0; Corn plant response rating [16]: 0; Plant response rating, Corn [16]: 0; Plant response rating, Barnyardgrass ([17]; 500 g ai/ha): 0; Plant response rating, Sedge, Umbrella ([18]; 500 g ai/ha): 0; Plant response rating, Ducksalad ([19]; 500 g ai/ha): 0; Plant response rating, Rice ([20]; 500 g ai/ha): 0 |
